Each compound was assayed against T1, PI3K alpha (Homo sapiens, UniProt P42336) (assay: P110 Alpha TR-FRET Assay (PI3K alpha kinase assay, HTRF Transcreener ADP Assay)). Details: PI3K (WT).
T1 construct: purchased Millipore Upstate
Type: biochemical
Summary of the method: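 Enzyme (50 ng) and compound were preincubated 20 min in HEPES pH 7.5 buffer containing MgCl2, DTT and vanadate before 10 μM ATP plus 5 μM PIP2 substrate was added for 20 min. ADP produced was quantified by TR-FRET (ADP-d2, anti-ADP cryptate, 1 h).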

T1 sequence (P42336 whole entry): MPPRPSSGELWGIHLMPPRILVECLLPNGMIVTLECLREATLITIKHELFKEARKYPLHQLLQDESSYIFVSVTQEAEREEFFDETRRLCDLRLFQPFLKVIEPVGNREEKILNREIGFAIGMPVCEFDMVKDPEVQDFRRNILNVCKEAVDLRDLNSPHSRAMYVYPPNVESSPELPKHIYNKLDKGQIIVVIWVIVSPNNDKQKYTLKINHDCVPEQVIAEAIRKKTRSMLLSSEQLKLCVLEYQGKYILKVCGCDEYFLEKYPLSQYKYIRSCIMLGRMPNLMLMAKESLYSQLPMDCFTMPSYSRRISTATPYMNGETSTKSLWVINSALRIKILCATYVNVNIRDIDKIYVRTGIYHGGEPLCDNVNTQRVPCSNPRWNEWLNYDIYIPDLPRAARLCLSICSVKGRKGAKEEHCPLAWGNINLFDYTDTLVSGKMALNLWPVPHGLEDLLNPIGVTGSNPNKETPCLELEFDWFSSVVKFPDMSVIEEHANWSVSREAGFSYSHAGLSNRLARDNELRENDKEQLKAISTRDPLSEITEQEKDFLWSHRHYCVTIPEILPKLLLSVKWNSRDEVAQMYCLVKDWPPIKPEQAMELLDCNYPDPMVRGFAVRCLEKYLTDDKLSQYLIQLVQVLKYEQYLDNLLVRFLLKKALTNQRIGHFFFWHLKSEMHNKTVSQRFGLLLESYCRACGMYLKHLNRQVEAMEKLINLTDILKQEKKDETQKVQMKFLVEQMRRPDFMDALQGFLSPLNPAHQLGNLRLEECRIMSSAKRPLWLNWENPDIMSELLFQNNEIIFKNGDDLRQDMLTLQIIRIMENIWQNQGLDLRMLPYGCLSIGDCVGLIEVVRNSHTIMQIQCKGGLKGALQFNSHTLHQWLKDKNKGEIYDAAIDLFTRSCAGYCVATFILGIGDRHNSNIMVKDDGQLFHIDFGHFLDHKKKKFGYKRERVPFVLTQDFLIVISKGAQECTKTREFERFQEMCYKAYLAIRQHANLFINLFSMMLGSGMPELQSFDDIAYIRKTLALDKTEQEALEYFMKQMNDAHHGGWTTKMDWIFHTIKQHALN
T1 sequence (P27986 whole entry partner): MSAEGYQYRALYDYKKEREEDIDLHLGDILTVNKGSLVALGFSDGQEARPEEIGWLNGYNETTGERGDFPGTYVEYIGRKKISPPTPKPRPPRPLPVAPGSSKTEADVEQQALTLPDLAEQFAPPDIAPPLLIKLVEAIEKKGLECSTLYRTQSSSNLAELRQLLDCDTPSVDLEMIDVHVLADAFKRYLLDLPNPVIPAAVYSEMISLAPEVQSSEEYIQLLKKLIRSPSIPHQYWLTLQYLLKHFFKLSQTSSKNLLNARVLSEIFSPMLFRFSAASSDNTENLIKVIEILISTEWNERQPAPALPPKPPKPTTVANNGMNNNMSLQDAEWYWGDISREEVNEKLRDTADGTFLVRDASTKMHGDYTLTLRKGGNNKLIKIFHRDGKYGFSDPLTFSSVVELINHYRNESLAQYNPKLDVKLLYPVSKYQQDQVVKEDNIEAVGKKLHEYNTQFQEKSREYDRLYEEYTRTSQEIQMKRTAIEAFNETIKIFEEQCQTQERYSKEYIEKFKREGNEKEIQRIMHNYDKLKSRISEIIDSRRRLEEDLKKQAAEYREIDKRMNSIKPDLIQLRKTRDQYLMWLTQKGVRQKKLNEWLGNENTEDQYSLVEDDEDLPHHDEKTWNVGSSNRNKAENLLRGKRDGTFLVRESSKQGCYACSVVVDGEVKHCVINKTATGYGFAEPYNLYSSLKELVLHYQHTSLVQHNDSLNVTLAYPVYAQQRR

Compound	IC50 [µM]
CN1CCN(c2nc(-c3cccc4[nH]ncc34)nc(N3CCOCC3)n2)CC1 [Compound 1228, 4-18-[4-3-(4-15-methylpiperazin-1-yl)-6-5-(morpholin-4-yl)-1,3,5-triazin-2-yl]-1H-indazole]	< 5
CN(C)C(=O)c1cc(Oc2nc(-c3cccc4[nH]ncc34)nc(N3CCOCC3)n2)cs1 [Compound 1067, 4-14-{[4-1-(1H-indazol-4-yl)-6-5-(morpholin-4-yl)-1,3,5-triazin-2-yl]oxy}-N,N-dimethylthiophene-2-carboxamide]	< 5
O=C1CCc2ccc(Oc3nc(-c4cccc5[nH]ncc45)nc(N4CCOCC4)n3)cc2N1 [Compound 1054, 7-14-{[4-1-(1H-indazol-4-yl)-6-5-(morpholin-4-yl)-1,3,5-triazin-2-yl]oxy}-1,2,3,4-tetrahydroquinolin-2-one]	< 5
Oc1ccc(-c2nc(N3CCNCC3)nc(N3CCOCC3)n2)cn1 [Compound 1105, 5-12-[4-5-(morpholin-4-yl)-6-3-(piperazin-1-yl)-1,3,5-triazin-2-yl]pyridin-2-ol]	< 5
COc1cccc(-c2nc(N)nc(N3CCOCC3)n2)c1 [Compound 1128, 4-4-(3-13-methoxyphenyl)-6-0-(morpholin-4-yl)-1,3,5-triazin-2-amine]	> 5
O=C1NCC2CN(c3nc(-c4cccc5[nH]ncc45)nc(N4CCOCC4)n3)CCC12 (stereo not drawn) [Compound 1196, 5-8-[4-1-(1H-indazol-4-yl)-6-5-(morpholin-4-yl)-1,3,5-triazin-2-yl]-octahydro-1H-pyrrolo[3,4-c]pyridin-1-one]	< 5
O=C(NC1CCNCC1)c1cccc(Nc2nc(-c3cccc4[nH]ncc34)nc(N3CCOCC3)n2)c1 [Compound 1157, 3-((4-(1H-indazol-4-yl)-6-morpholino-1,3,5-triazin-2-yl)amino)-N-(piperidin-4-yl)benzamide]	< 5
NC(=O)C1CN(C(=O)c2cccc(Nc3nc(-c4cccc5[nH]ncc45)nc(N4CCOCC4)n3)c2)C1 [Compound 1154, 1-(3-((4-(1H-indazol-4-yl)-6-morpholino-1,3,5-triazin-2-yl)amino)benzoyl)azetidine-3-carboxamide]	< 5
c1cc(-c2nc(N3CCCNCC3)nc(N3CCOCC3)n2)c2cn[nH]c2c1 [Compound 1213, 4-12-[4-3-(1,4-diazepan-1-yl)-6-5-(morpholin-4-yl)-1,3,5-triazin-2-yl]-1H-indazole]	< 5
CN(C)C(=O)c1cccc(Nc2nc(-c3cccc4[nH]ncc34)nc(N3CCNC(=O)C3)n2)c1 [Compound 1111, 3-((4-(1H-indazol-4-yl)-6-(3-oxopiperazin-1-yl)-1,3,5-triazin-2-yl)amino)-N,N-dimethylbenzamide]	> 5
N-[(4E)-1-8-[4-1-(1-21-{4-24-[(4E)-4-37-(hydroxyimino)azepan-1-yl]-6-26-(morpholin-4-yl)-1,3,5-triazin-2-yl}-1H-indazol-4-yl)-6-5-(morpholin-4-yl)-1,3,5-triazin-2-yl]azepan-4-ylidene]hydroxylamine [Compound 1123]	< 5
Nc1ccc(-c2nc(Oc3ccc4c(c3)CCC(=O)N4)nc(N3CCOCC3)n2)cn1 [Compound 1010, 6-20-{[4-1-(6-11-ammopyridin-3-yl)-6-5-(morpholin-4-yl)-1,3,5-triazin-2-yl]oxy}-1,2,3,4-tetrahydroquinolin-2-one]	< 5
O=C1CN(c2nc(-c3cccc4[nH]ncc34)nc(N3CCOCC3)n2)CCN1 [Compound 1230, 4-7-[4-1-(1H-indazol-4-yl)-6-5-(morpholin-4-yl)-1,3,5-triazin-2-yl]piperazin-2-one]	< 5
CN(C)C(=O)c1ccc(Oc2nc(-c3ccc(N)cc3)nc(N3CCOCC3)n2)cc1 [Compound 1031, 4-14-{[4-1-(4-17-aminophenyl)-6-5-(morpholin-4-yl)-1,3,5-triazin-2-yl]oxy}-N,N-dimethylbenzamide]	< 5
CN(C)C(=O)c1ccc(Nc2nc(-c3cccc4[nH]ncc34)nc(N3CCOCC3)n2)cc1 [Compound 1204, 4-((4-(1H-indazol-4-yl)-6-morpholino-1,3,5-triazin-2-yl)amino)-N,N-dimethylbenzamide]	< 5
NC(=O)c1cccc(Nc2nc(-c3cccc4[nH]ncc34)nc(N3CCOCC3)n2)c1 [Compound 1201, 3-((4-(1H-indazol-4-yl)-6-morpholino-1,3,5-triazin-2-yl)amino)benzamide]	< 5
CN(C)C(=O)[C@H]1C[C@H](Oc2nc(-c3cccc4[nH]ncc34)nc(N3CCOCC3)n2)CN1 [Compound 1103, (2R,4S)-4-14-{[4-1-(1H-indazol-4-yl)-6-5-(morpholin-4-yl)-1,3,5-triazin-2-yl]oxy}-N,N-dimethylpyrrolidine-2-carboxamide]	< 5
O=C1CCN(c2nc(-c3cccc4[nH]ncc34)nc(N3CCOCC3)n2)CCN1 [Compound 1206, 1-21-[4-1-(1H-indazol-4-yl)-6-5-(morpholin-4-yl)-1,3,5-triazin-2-yl]-1,4-diazepan-5-one]	< 5

Compound	IC50 [µM]
CC(C)(Nc1nc(-c2cccc3[nH]ncc23)nc(N2CCOCC2)n1)C(=O)O [Compound 1235, 2-((4-(1H-indazol-4-yl)-6-morpholino-1,3,5-triazin-2-yl)amino)-2-methylpropanoic acid]	< 5
CN(C)C(=O)N1CCC(Oc2nc(-c3cnc(N)nc3)nc(N3CCOCC3)n2)CC1 [Compound 1008, 4-14-{[4-1-(2-17-aminopyrimidin-5-yl)-6-5-(morpholin-4-yl)-1,3,5-triazin-2-yl]oxy}-N,N-dimethylpiperidine-1-carboxamide]	< 5
CN1CCN(C(=O)c2cccc(Nc3nc(-c4cccc5[nH]ncc45)nc(N4CCOCC4)n3)c2)CC1 [Compound 1172, (3-((4-(1H-indazol-4-yl)-6-morpholino-1,3,5-triazin-2-yl)amino)phenyl)(4-methylpiperazin-1-yl)methanone]	< 5
O=C1CCN(C(=O)c2cccc(Nc3nc(-c4cccc5[nH]ncc45)nc(N4CCOCC4)n3)c2)CCN1 [Compound 1117, 1-(3-((4-(1H-indazol-4-yl)-6-morpholino-1,3,5-triazin-2-yl)amino)benzoyl)-1,4-diazepan-5-one]	< 5
NC1CCN(c2nc(-c3cccc4[nH]ncc34)nc(N3CCOCC3)n2)CC1 [Compound 1222, 1-8-[4-1-(1H-indazol-4-yl)-6-5-(morpholin-4-yl)-1,3,5-triazin-2-yl]piperidin-4-amine]	< 5
CC(C)C(Nc1nc(-c2cccc(O)c2)nc(N2CCOCC2)n1)C(=O)O (stereo not drawn) [Compound 1175, 2-((4-(3-hydroxyphenyl)-6-morpholino-1,3,5-triazin-2-yl)amino)-3-methylbutanoic acid]	< 5
CN(C)C(=O)c1ccc(Oc2nc(-c3cnc4[nH]ccc4c3)nc(N3CCOCC3)n2)cc1 [Compound 1041, N,N-dimethyl-4-8-{[4-5-(morpholin-4-yl)-6-1-{1H-pyrrolo[2,3-b]pyridin-5-yl}-1,3,5-triazin-2-yl]oxy}benzamide]	< 5
c1ccc(CSc2nc(-c3cccc4[nH]ncc34)nc(N3CCOCC3)n2)cc1 [Compound 1166, 4-(4-(benzylthio)-6-(1H-indazol-4-yl)-1,3,5-triazin-2-yl)morpholine]	< 5
2-8-[4-1,6-5-bis(morpholin-4-yl)-1,3,5-triazin-2-yl]-2H-indazole [Compound 1112]	< 5
COC1CN(C(=O)c2cccc(Nc3nc(-c4cccc5[nH]ncc45)nc(N4CCOCC4)n3)c2)C1 [Compound 1164, (3-((4-(1H-indazol-4-yl)-6-morpholino-1,3,5-triazin-2-yl)amino)phenyl)(3-methoxyazetidin-1-yl)methanone]	< 5
NS(=O)(=O)Nc1ccc(Oc2nc(-c3cccc4[nH]ncc34)nc(N3CCOCC3)n2)cc1 [Compound 1092, N-(4-14-{[4-1-(1H-indazol-4-yl)-6-5-(morpholin-4-yl)-1,3,5-triazin-2-yl]oxy}phenyl)aminosulfonamide]	< 5
CN(C)C(=O)CNc1nc(-c2cccc3c2CCC3O)nc(N2CCOCC2)n1 (stereo not drawn) [Compound 1070, 2-((4-(1-hydroxy-2,3-dihydro-1H-inden-4-yl)-6-morpholino-1,3,5-triazin-2-yl)amino)-N,N-dimethylacetamide]	> 5
O=C1CN(C(=O)c2cccc(Nc3nc(-c4cccc5[nH]ncc45)nc(N4CCOCC4)n3)c2)CCN1 [Compound 1163, 4-(3-((4-(1H-indazol-4-yl)-6-morpholino-1,3,5-triazin-2-yl)amino)benzoyl)piperazin-2-one]	< 5
Nc1ncc(-c2nc(N3CCOCC3)nc(N3CCN(S(N)(=O)=O)CC3)n2)cn1 [Compound 1053, 4-6-[4-1-(2-16-aminopyrimidin-5-yl)-6-5-(morpholin-4-yl)-1,3,5-triazin-2-yl]piperazine-1-sulfonamide]	< 5
COc1cccc(-c2nc(NCC(=O)N3CCN(S(C)(=O)=O)CC3)nc(N3CCOCC3)n2)c1 [Compound 1079, 2-((4-(3-methoxyphenyl)-6-morpholino-1,3,5-triazin-2-yl)amino)-1-(4-(methylsulfonyl)piperazin-1-yl)ethanone]	> 5
CN(C)C(=O)c1ccc(Oc2nc(-c3ccc(F)nc3)nc(N3CCOCC3)n2)cc1 [Compound 1029, 4-14-{[4-1-(6-17-fluoropyridin-3-yl)-6-5-(morpholin-4-yl)-1,3,5-triazin-2-yl]oxy}-N,N-dimethylbenzamide]	< 5
CN(C)C(=O)c1ccc(Oc2nc(-c3cnc(N)s3)nc(N3C4CCC3COC4)n2)cc1 [Compound 1001, 4-8-{[4-1-(2-11-amino-1,3-thiazol-5-yl)-6-5-{3-oxa-8-azabicyclo[3.2.1]octan-8-yl}-1,3,5-triazin-2-yl]oxy}-N,N-dimethylbenzamide]	< 5
CC(Nc1nc(-c2cccc3[nH]ncc23)nc(N2CCOCC2)n1)C(N)=O (stereo not drawn) [Compound 1234, 2-((4-(1H-indazol-4-yl)-6-morpholino-1,3,5-triazin-2-yl)amino)propanamide]	< 5

— US9481670B2, “Triazine compounds” (Sphaera Pharma PTE. Ltd., priority 2011, dated 2016)
